# Measured values: PubChem BioAssay AID1963972 (Molecular Pharmacology Branch, DTP, NCI, 2024)
# pIC50: −log10 of the molar value.
# Tested on: 945468-187-T-J2-PDC spheroids viability
# Experiment: Anticancer human tumor 945468-187-T-J2-PDC patient-derived rectal carcinoma cell line growth inhibition [PI3K]
# Conditions: spheroids with HUVEC and MSC; for pIC50: curve of first compound; for viability, T/C: stronger effect = lower value
# Excerpt: Combinatorial screen of targeted agents with the PI3K inhibitors inavolisib, alpelisib, duvelisib, and copanlisib in multi-cell type tumor spheroids
# A high-throughput screen of multi-cell type tumor spheroids was designed to identify active combinations of targeted small molecules and PI3K pathway inhibitors. Complex spheroids include a stromal component modeled by human endothelial cells (HUVEC) and fibroblasts modeled by human mesenchymal stem cells (MSCs). The concentration ranges selected for each drug and investigational agent were based upon clinically achievable concentrations if the clinical Cmax of the agent was known.
# Compounds. The drugs and investigational agents: inavolisib (NSC800729), alpelisib (NSC765974), duvelisib (NSC772469), copanlisib (NSC816437), ipatasertib (NSC767898), afuresertib (NSC778305), talazoparib (NSC767125), sapanisertib (NSC764658), selumetinib (NSC741078), tovorafenib (DAY101, NSC766906), vemurafenib (NSC761431), ravoxertinib (NSC781343), sotorasib (NSC818433), MRTX1133 (NSC 836407), abemaciclib (NSC 768073), palbociclib (NSC758247), venetoclax (NSC 766270), SY5609 (NSC837396), enzalutamide (NSC755605), and darolutamide (NSC825331), were obtained from the National Cancer Institute (NCI) Developmental Therapeutics Program Chemical Repository. The FDA-approved anticancer drug set is available from the NCI Developmental Therapeutics Program. […] The stock solutions were prepared in dimethyl sulfoxide (DMSO, Sigma-Aldrich, St. Louis, MO, cat. D2650) at 800-fold the tested concentration and stored at -70 degrees C prior to their use. All drugs and investigational agents were tested over a range starting from a high concentration at or near the clinical Cmax and decreasing in half-log increments. If the clinical Cmax for an agent had not been determined, the highest concentration tested was 10 microM.
# Cell Culture. All cells were maintained in an incubator at 37 degrees C and 5% CO2 with 95% humidity. The PDC lines were cultured according to standard operating procedures established by the NCI PDMR (https://pdmr.cancer.gov/sops/default.htm). All PDCs were thawed and cultured in Matrigel-coated flasks prepared with a working solution of 1X Ham's F-12 nutrient mix, without supplementation (Invitrogen, Waltham, MA, cat. 11765054), 100 U/mL penicillin-streptomycin (Invitrogen, cat. 15140122), and 2.5% Matrigel (Corning Inc., Corning, NY, cat. 354248) for the first three passages. The 354836-022-R-J1-PDC, 475296-252-R-J1-PDC, and 997726-040-R-J2-PDC lines were cultured in 6A media, which includes advanced DMEM/F-12 (Thermo Fisher Scientific, cat. 12634028), 10 mM HEPES (Thermo Fisher Scientific, cat. 15630080), 1X GlutaMAX supplement (Thermo Fisher Scientific, cat. 35050061), 0.1 mg/mL primocin (InvivoGen, San Diego, CA, cat. ant-pm-2), 10% defined fetal bovine serum, heat inactivated (HyClone Laboratories Inc., Logan, UT, cat. SH30070.03HI), 50% L-WRN conditioned media (ATCC, cat. CRL-3276), 1.25 mM N-Acetyl-L-cysteine (Sigma-Aldrich, cat. A9165), 10 mM nicotinamide (Sigma-Aldrich, cat. N0636), 1X B-27 supplement (Thermo Fisher Scientific, cat. 17504044), 1X N-2 supplement (Thermo Fisher Scientific, cat. 17502048), and 10 microM Y-27632 dihydrochloride (Tocris Bioscience, Bristol, United Kingdom, cat. 1254). The 624824-186-R-J2-PDC line was cultured in 6C/Colon 1B media, which includes all 6A media components plus 50 ng/mL human EGF recombinant protein (Thermo Fisher Scientific, cat. PHG0311). […]
# 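Also: spheroids exposed to compounds for seven days before reading.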
smiles,measurement,setting,value
CC(C)n1nc(-c2ccc3oc(N)nc3c2)c2c(N)ncnc21 + CC(Nc1ccc2c(c1)OCCn1cc(N3C(=O)OCC3C(F)F)nc1-2)C(N)=O,pIC50,second compound 0.00316 µM,< 7.00
same,pIC50,second compound 0.01 µM,< 7.00
same,pIC50,second compound 0.0316 µM,< 7.00
same,pIC50,second compound 0.1 µM,< 7.00
same,pIC50,second compound 0.316 µM,7.12
same,pIC50,second compound 1 µM,7.57
same,"viability, T/C","second compound 0.00316 µM, first compound 0.000316 µM",141%
same,"viability, T/C","second compound 0.00316 µM, first compound 0.001 µM",114%
same,"viability, T/C","second compound 0.00316 µM, first compound 0.00316 µM",115%
same,"viability, T/C","second compound 0.00316 µM, first compound 0.01 µM",89.4%
same,"viability, T/C","second compound 0.00316 µM, first compound 0.0316 µM",107%
same,"viability, T/C","second compound 0.00316 µM, first compound 0.1 µM",83.7%
same,"viability, T/C","second compound 0.01 µM, first compound 0.000316 µM",168%
same,"viability, T/C","second compound 0.01 µM, first compound 0.001 µM",101%
same,"viability, T/C","second compound 0.01 µM, first compound 0.00316 µM",108%
same,"viability, T/C","second compound 0.01 µM, first compound 0.01 µM",91%
same,"viability, T/C","second compound 0.01 µM, first compound 0.0316 µM",88.8%
same,"viability, T/C","second compound 0.01 µM, first compound 0.1 µM",71%
same,"viability, T/C","second compound 0.0316 µM, first compound 0.000316 µM",105%
same,"viability, T/C","second compound 0.0316 µM, first compound 0.001 µM",85.2%
same,"viability, T/C","second compound 0.0316 µM, first compound 0.00316 µM",109%
same,"viability, T/C","second compound 0.0316 µM, first compound 0.01 µM",106%
same,"viability, T/C","second compound 0.0316 µM, first compound 0.0316 µM",95.7%
same,"viability, T/C","second compound 0.0316 µM, first compound 0.1 µM",73.4%
same,"viability, T/C","second compound 0.1 µM, first compound 0.000316 µM",81%
same,"viability, T/C","second compound 0.1 µM, first compound 0.001 µM",112%
same,"viability, T/C","second compound 0.1 µM, first compound 0.00316 µM",108%
same,"viability, T/C","second compound 0.1 µM, first compound 0.01 µM",91.8%
same,"viability, T/C","second compound 0.1 µM, first compound 0.0316 µM",101%
same,"viability, T/C","second compound 0.1 µM, first compound 0.1 µM",61.4%
same,"viability, T/C","second compound 0.316 µM, first compound 0.000316 µM",84.6%
same,"viability, T/C","second compound 0.316 µM, first compound 0.001 µM",89.7%
same,"viability, T/C","second compound 0.316 µM, first compound 0.00316 µM",82.2%
same,"viability, T/C","second compound 0.316 µM, first compound 0.01 µM",81.5%
same,"viability, T/C","second compound 0.316 µM, first compound 0.0316 µM",75.5%
same,"viability, T/C","second compound 0.316 µM, first compound 0.1 µM",41.8%
same,"viability, T/C","second compound 1 µM, first compound 0.000316 µM",87.4%
same,"viability, T/C","second compound 1 µM, first compound 0.001 µM",103%
same,"viability, T/C","second compound 1 µM, first compound 0.00316 µM",75.5%
same,"viability, T/C","second compound 1 µM, first compound 0.01 µM",61.1%
same,"viability, T/C","second compound 1 µM, first compound 0.0316 µM",52.6%
same,"viability, T/C","second compound 1 µM, first compound 0.1 µM",29.4%
